The numbers were not newly measured in patent US20040259937A1, “Hydroxycitric acid complex metal salts, composition, and methods” (INDFRAG LIMITED, priority 2003, published 2004), which cites them from elsewhere.

The conditions of this series: converted to the lactone form during processing.

For the compound `O=C(O)CC(O)(C(=O)O)C(O)C(=O)O` (single isomer, unassigned; (-)) [(−)hydroxycitric acid], the “stability of pure free acid” value is listed as “not stable”.
